target: Carbonic anhydrase 1 (Homo sapiens, UniProt P00915); assay: Inhibition of human carbonic anhydrase I (CAI)
Sequence (P00915 whole entry): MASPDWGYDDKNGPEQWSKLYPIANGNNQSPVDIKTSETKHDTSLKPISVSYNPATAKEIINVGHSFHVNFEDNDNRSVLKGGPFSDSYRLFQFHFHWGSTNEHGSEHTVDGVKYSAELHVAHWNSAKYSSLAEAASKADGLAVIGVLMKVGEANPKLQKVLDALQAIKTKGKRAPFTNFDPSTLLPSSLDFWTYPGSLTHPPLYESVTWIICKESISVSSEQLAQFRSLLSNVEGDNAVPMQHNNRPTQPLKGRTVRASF

**Q.** Which Ki does the source give for `NS(=O)(=O)c1cccc(C(=O)c2cccc(C(=O)O)n2)c1` here?
**A.** 20000 nM

**Q.** How did the Ki turn out when `NS(=O)(=O)c1ccc(C(=O)c2cccc(C(=O)O)n2)cc1` was run?
**A.** 15500 nM

**Q.** Which Ki does the source give for `NS(=O)(=O)c1ccc(C(=O)c2cccc(C(=O)O)n2)c(Cl)c1` here?
**A.** 620 nM

**Q.** For `NS(=O)(=O)c1cc(S(N)(=O)=O)c(NC(=O)c2cccc(C(=O)O)n2)c(Cl)c1NC(=O)c1cccc(C(=O)O)n1`, which Ki is on record?
**A.** 450 nM

**Q.** Which Ki does the source give for `Nc1c(S(N)(=O)=O)cc(S(N)(=O)=O)c(N)c1Cl` here?
**A.** 6100 nM

**Q.** `NS(=O)(=O)c1cc(S(N)(=O)=O)c(C(=O)c2cccc(C(=O)O)n2)cc1Cl` was tested. Which Ki did it give?
**A.** 600 nM

**Q.** How did the Ki turn out when `NS(=O)(=O)c1ccc(CCON2C(=O)c3cccnc3C2=O)cc1` was run?
**A.** 2000 nM

**Q.** For `NS(=O)(=O)c1ccc(C(=O)c2cccc(C(=O)O)n2)c(Br)c1`, which Ki is on record?
**A.** 605 nM

**Q.** For `NS(=O)(=O)c1cc(S(N)(=O)=O)c(C(=O)c2cccc(C(=O)O)n2)c(Cl)c1C(=O)c1cccc(C(=O)O)n1`, which Ki is on record?
**A.** 500 nM

**Q.** How did the Ki turn out when `NS(=O)(=O)c1ccc(C(=O)c2cccc(C(=O)O)n2)c(F)c1` was run?
**A.** 540 nM

**Q.** How did the Ki turn out when `NS(=O)(=O)c1ccc(CCC(=O)c2cccc(C(=O)O)n2)cc1` was run?
**A.** 906 nM

**Q.** Which Ki does the source give for `NS(=O)(=O)c1ccccc1C(=O)c1cccc(C(=O)O)n1` here?
**A.** 21000 nM

**Q.** With `NS(=O)(=O)c1ccc(CON2C(=O)c3cccnc3C2=O)cc1` as the compound, how does the Ki read?
**A.** 2040 nM

**Q.** How did the Ki turn out when `NS(=O)(=O)c1ccc(C(=O)c2cccc(C(=O)O)n2)c(I)c1` was run?
**A.** 610 nM

**Q.** Which Ki does the source give for `NS(=O)(=O)c1ccc(NC(=O)c2cccc(C(=O)O)n2)cc1` here?
**A.** 21500 nM

target: T1, Carbonic anhydrase 4 (Bos taurus, UniProt Q95323); assay: Inhibition of bovine carbonic anhydrase IV (CAIV)
T1 sequence (Q95323 whole entry): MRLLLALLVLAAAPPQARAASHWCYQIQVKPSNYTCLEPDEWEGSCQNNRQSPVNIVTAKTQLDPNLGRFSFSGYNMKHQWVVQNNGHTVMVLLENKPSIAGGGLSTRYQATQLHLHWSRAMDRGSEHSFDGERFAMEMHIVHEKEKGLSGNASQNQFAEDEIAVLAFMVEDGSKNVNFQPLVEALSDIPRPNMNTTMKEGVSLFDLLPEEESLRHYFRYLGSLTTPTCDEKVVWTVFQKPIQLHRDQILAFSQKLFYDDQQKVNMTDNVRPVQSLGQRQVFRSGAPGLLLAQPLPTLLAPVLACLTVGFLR

**Q.** How did the Ki turn out when `NS(=O)(=O)c1cccc(C(=O)c2cccc(C(=O)O)n2)c1` was run?
**A.** 305 nM

**Q.** For `NS(=O)(=O)c1ccc(C(=O)c2cccc(C(=O)O)n2)cc1`, which Ki is on record?
**A.** 170 nM

**Q.** `NS(=O)(=O)c1ccc(C(=O)c2cccc(C(=O)O)n2)c(Cl)c1` was tested. Which Ki did it give?
**A.** 79 nM

**Q.** How did the Ki turn out when `NS(=O)(=O)c1cc(S(N)(=O)=O)c(NC(=O)c2cccc(C(=O)O)n2)c(Cl)c1NC(=O)c1cccc(C(=O)O)n1` was run?
**A.** 55 nM

**Q.** Which Ki does the source give for `NS(=O)(=O)c1ccc(CC(=O)c2cccc(C(=O)O)n2)cc1` here?
**A.** 79 nM

**Q.** For `Nc1c(S(N)(=O)=O)cc(S(N)(=O)=O)c(N)c1Cl`, which Ki is on record?
**A.** 175 nM

**Q.** How did the Ki turn out when `NS(=O)(=O)c1cc(S(N)(=O)=O)c(C(=O)c2cccc(C(=O)O)n2)cc1Cl` was run?
**A.** 60 nM

**Q.** With `NS(=O)(=O)c1ccc(CCON2C(=O)c3cccnc3C2=O)cc1` as the compound, how does the Ki read?
**A.** 105 nM

**Q.** With `NS(=O)(=O)c1ccc(C(=O)c2cccc(C(=O)O)n2)c(Br)c1` as the compound, how does the Ki read?
**A.** 75 nM

**Q.** How did the Ki turn out when `NS(=O)(=O)c1cc(S(N)(=O)=O)c(C(=O)c2cccc(C(=O)O)n2)c(Cl)c1C(=O)c1cccc(C(=O)O)n1` was run?
**A.** 69 nM

**Q.** How did the Ki turn out when `NS(=O)(=O)c1ccc(C(=O)c2cccc(C(=O)O)n2)c(F)c1` was run?
**A.** 46 nM

**Q.** For `NS(=O)(=O)c1ccc(CCC(=O)c2cccc(C(=O)O)n2)cc1`, which Ki is on record?
**A.** 54 nM

**Q.** `NS(=O)(=O)c1ccccc1C(=O)c1cccc(C(=O)O)n1` was tested. Which Ki did it give?
**A.** 310 nM

**Q.** Which Ki does the source give for `NS(=O)(=O)c1ccc(CON2C(=O)c3cccnc3C2=O)cc1` here?
**A.** 120 nM

**Q.** Which Ki does the source give for `NS(=O)(=O)c1ccc(C(=O)c2cccc(C(=O)O)n2)c(I)c1` here?
**A.** 70 nM

**Q.** How did the Ki turn out when `NS(=O)(=O)c1ccc(NC(=O)c2cccc(C(=O)O)n2)cc1` was run?
**A.** 300 nM

target: Carbonic anhydrase 2 (Homo sapiens, UniProt P00918); assay: Inhibition of human carbonic anhydrase II (CAII)

**Q.** For `NS(=O)(=O)c1cccc(C(=O)c2cccc(C(=O)O)n2)c1`, which Ki is on record?
**A.** 250 nM

**Q.** Which Ki does the source give for `NS(=O)(=O)c1ccc(C(=O)c2cccc(C(=O)O)n2)cc1` here?
**A.** 132 nM

**Q.** Which Ki does the source give for `NS(=O)(=O)c1ccc(C(=O)c2cccc(C(=O)O)n2)c(Cl)c1` here?
**A.** 44 nM

**Q.** `NS(=O)(=O)c1cc(S(N)(=O)=O)c(NC(=O)c2cccc(C(=O)O)n2)c(Cl)c1NC(=O)c1cccc(C(=O)O)n1` was tested. Which Ki did it give?
**A.** 10 nM

**Q.** For `NS(=O)(=O)c1cc(S(N)(=O)=O)c(C(=O)c2cccc(C(=O)O)n2)cc1Cl`, which Ki is on record?
**A.** 8.99 nM

**Q.** With `NS(=O)(=O)c1ccc(CCON2C(=O)c3cccnc3C2=O)cc1` as the compound, how does the Ki read?
**A.** 15 nM

**Q.** How did the Ki turn out when `NS(=O)(=O)c1cc(S(N)(=O)=O)c(C(=O)c2cccc(C(=O)O)n2)c(Cl)c1C(=O)c1cccc(C(=O)O)n1` was run?
**A.** 12 nM

**Q.** Which Ki does the source give for `NS(=O)(=O)c1ccc(C(=O)c2cccc(C(=O)O)n2)c(F)c1` here?
**A.** 10 nM

**Q.** How did the Ki turn out when `NS(=O)(=O)c1ccc(CCC(=O)c2cccc(C(=O)O)n2)cc1` was run?
**A.** 8.99 nM

**Q.** Which Ki does the source give for `NS(=O)(=O)c1ccccc1C(=O)c1cccc(C(=O)O)n1` here?
**A.** 280 nM

**Q.** With `NS(=O)(=O)c1ccc(CON2C(=O)c3cccnc3C2=O)cc1` as the compound, how does the Ki read?
**A.** 20 nM

**Q.** For `NS(=O)(=O)c1ccc(C(=O)c2cccc(C(=O)O)n2)c(I)c1`, which Ki is on record?
**A.** 33 nM

From ChEMBL document CHEMBL1136821, “Modelling of carbonic anhydrase inhibitory activity of sulfonamides using molecular negentropy” (Bioorg Med Chem Lett, 2003)
